Measured values as given in patent US9340590B2 (priority 2011, dated 2016).
pIC50: −log10 of the molar value. Read-outs that look alike come from different tables or passages of the source. Positions of bridges follow the written chain, without caps; N, C: chain ends. Residues, ends and D or L forms follow the SMILES beside them.

Columns and labels:
Assay in all cases: cell-based
hNav1.5 = hNav1.5 (Homo sapiens, UniProt Q14524)
hNav1.7 = hNav1.7 (Homo sapiens, UniProt Q15858); type: cell-based; settings: ratio of IWQ Use values, Nav1.4 over Nav1.7
hNav1.3 = hNav1.3 (Homo sapiens, UniProt Q9NY46); settings: ratio of IWQ Use values; for Nav1.4/Nav1.3: Nav1.4 over Nav1.3; for Nav1.7/Nav1.3: Nav1.7 over Nav1.3
Sequence of hNav1.3 (Q9NY46 whole entry, looked up): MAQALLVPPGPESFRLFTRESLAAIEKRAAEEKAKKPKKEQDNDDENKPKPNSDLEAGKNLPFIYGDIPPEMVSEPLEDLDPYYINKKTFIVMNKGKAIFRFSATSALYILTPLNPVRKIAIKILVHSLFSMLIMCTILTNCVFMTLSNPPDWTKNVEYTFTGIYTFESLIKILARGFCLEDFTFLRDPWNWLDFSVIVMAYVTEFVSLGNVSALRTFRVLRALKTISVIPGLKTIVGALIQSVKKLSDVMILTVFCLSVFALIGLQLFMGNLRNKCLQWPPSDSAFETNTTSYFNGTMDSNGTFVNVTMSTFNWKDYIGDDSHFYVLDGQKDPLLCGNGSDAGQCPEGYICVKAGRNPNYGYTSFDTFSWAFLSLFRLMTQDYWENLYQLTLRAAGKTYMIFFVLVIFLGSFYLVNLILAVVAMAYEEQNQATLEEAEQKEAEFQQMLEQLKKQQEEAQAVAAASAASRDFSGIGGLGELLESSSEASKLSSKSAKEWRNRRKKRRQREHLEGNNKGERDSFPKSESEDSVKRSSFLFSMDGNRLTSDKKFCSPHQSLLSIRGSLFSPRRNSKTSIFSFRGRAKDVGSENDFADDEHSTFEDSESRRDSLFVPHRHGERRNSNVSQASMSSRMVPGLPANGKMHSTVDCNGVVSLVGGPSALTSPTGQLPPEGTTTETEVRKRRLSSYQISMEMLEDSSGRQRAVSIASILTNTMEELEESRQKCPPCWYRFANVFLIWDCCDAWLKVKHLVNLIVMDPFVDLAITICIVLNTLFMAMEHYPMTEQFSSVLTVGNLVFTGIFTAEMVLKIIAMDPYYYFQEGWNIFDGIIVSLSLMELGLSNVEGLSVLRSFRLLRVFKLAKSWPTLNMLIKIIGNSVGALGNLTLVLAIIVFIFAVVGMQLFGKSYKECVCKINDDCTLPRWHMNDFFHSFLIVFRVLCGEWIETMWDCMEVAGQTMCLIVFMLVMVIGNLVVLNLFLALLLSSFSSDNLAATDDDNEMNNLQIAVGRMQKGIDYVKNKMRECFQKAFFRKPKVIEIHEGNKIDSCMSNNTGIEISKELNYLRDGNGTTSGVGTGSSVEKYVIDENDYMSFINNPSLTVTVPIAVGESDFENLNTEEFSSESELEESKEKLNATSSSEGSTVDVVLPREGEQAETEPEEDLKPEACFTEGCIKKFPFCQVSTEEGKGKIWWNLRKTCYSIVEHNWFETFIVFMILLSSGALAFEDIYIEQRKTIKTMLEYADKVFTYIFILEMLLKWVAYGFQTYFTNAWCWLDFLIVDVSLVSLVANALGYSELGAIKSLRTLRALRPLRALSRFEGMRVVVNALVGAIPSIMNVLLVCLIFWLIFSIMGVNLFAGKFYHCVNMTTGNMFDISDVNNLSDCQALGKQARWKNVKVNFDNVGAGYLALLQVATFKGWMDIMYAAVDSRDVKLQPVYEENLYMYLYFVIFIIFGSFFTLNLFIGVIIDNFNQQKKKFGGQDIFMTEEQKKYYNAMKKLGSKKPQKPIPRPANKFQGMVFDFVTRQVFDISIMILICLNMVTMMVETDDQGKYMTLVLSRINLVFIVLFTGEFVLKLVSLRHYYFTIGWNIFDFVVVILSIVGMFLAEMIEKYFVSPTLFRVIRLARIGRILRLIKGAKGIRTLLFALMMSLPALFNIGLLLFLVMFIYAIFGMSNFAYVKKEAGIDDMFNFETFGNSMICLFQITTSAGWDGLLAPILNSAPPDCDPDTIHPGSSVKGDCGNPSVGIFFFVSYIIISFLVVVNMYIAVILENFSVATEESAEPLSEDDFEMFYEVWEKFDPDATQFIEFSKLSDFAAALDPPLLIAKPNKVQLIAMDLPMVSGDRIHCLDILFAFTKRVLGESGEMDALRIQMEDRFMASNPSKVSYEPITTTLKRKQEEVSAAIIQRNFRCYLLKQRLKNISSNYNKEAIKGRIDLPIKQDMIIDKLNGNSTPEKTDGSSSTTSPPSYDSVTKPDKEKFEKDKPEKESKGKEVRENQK

Sequence of hNav1.5 (Q14524 whole entry, looked up): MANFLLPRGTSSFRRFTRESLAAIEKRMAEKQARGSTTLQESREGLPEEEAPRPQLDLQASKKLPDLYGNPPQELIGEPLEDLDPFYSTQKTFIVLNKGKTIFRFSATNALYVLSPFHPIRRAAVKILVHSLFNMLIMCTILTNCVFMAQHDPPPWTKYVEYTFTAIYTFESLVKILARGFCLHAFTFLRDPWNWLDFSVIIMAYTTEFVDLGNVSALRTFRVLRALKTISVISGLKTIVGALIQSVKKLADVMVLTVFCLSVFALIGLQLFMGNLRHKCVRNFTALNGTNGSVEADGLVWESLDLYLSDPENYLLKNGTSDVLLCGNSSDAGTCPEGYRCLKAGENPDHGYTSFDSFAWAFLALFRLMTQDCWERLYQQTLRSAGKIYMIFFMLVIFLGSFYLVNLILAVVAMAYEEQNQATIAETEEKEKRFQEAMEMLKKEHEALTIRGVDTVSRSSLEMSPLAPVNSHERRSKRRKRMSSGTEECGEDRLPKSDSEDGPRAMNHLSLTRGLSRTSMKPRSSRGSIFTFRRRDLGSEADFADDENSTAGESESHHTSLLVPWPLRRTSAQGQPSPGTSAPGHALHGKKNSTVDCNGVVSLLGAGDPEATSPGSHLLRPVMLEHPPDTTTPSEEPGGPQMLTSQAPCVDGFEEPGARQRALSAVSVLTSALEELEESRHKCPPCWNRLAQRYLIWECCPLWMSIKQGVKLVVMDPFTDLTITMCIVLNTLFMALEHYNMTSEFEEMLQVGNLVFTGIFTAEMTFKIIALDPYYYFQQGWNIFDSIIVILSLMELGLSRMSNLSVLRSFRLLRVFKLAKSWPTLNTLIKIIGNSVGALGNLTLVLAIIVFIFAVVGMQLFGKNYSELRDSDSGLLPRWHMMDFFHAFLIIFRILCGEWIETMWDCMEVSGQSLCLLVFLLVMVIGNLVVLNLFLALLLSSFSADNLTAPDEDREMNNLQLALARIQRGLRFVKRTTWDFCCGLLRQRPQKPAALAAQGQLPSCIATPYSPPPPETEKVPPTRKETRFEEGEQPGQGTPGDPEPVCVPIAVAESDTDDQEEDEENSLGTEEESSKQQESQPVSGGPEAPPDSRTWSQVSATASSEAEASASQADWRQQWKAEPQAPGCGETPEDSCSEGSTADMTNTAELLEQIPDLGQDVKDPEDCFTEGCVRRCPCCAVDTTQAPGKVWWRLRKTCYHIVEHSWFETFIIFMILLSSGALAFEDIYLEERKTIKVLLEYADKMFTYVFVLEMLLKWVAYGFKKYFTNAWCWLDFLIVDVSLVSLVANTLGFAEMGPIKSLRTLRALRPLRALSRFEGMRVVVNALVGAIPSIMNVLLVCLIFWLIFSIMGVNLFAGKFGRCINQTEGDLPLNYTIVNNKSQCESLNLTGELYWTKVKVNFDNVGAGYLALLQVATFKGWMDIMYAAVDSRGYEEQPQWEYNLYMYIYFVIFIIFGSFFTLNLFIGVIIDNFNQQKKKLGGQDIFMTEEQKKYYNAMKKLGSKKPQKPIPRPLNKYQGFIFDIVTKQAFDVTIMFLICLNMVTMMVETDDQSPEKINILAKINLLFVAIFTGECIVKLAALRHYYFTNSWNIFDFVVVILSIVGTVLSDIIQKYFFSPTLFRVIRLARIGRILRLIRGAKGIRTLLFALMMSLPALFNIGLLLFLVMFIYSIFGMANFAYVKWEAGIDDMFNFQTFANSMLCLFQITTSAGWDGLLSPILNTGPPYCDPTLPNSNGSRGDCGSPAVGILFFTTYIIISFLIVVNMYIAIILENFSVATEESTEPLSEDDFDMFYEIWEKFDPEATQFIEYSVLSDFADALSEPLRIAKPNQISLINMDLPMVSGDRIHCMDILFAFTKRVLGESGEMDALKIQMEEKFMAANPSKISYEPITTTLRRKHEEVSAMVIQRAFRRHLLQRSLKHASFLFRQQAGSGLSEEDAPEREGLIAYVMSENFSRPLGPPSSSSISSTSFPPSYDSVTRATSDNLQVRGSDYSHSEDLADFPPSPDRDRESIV

SMILES	Nav1.4/Nav1.7 (hNav1.7)	Nav1.4/Nav1.3 (hNav1.3)	Nav1.7/Nav1.3 (hNav1.3)	further results
CC[C@H](C)[C@@H]1NC(=O)[C@@H]2CSSC[C@@H]3NC(=O)[C@H](C(C)C)NC(=O)[C@H](CC(C)C)NC(=O)[C@H](CC(N)=O)NC(=O)[C@@H]4CCCN4C(=O)[C@H](CCCNC(=N)N)NC(=O)[C@H](CSSC[C@H](NC(=O)[C@@H](N)CC(=O)O)C(=O)N[C@@H](CC(C)C)C(=O)NCC(=O)N[C@H](Cc4ccccc4)C(=O)N[C@@H](CCSC)C(=O)N[C@@H](CCCNC(=N)N)C(=O)N[C@@H](CCCCN)C(=O)N2)NC(=O)[C@H](CSSC[C@@H](C(=O)N[C@@H](CCCCN)C(=O)N[C@@H](Cc2ccc(O)cc2)C(=O)N[C@H](C(=O)N[C@@H](Cc2ccccc2)C(N)=O)C(C)C)NC(=O)[C@H](Cc2c[nH]c4ccccc24)NC(=O)[C@H](CCCCN)NC(=O)[C@H](Cc2c[nH]cn2)NC(=O)[C@H]([C@@H](C)O)NC(=O)[C@H](CCCNC(=N)N)NC(=O)[C@H](CO)NC3=O)NC(=O)[C@H](CCCCN)NC(=O)[C@H](CC(=O)O)NC(=O)[C@H](CC(N)=O)NC(=O)[C@H](CC(=O)O)NC(=O)[C@@H]2CCCN2C1=O [SEQ ID NO: 273]	–	–	–	pIC50 (hNav1.5; IWQ Use Nav1.5): < 5.30
CC[C@H](C)[C@@H]1NC(=O)[C@@H]2CSSC[C@@H]3NC(=O)[C@H](C(C)C)NC(=O)[C@H](CC(C)C)NC(=O)[C@H](CC(N)=O)NC(=O)[C@@H]4CCCN4C(=O)[C@H](CCCNC(=N)N)NC(=O)[C@H](CSSC[C@H](NC(=O)[C@@H](N)CC(=O)O)C(=O)N[C@@H](CC(C)C)C(=O)NCC(=O)N[C@@H](Cc4ccccc4)C(=O)N[C@@H](CCSC)C(=O)N[C@@H](CCCNC(=N)N)C(=O)N[C@@H](CCCCN)C(=O)N2)NC(=O)[C@H](CSSC[C@@H](C(=O)N[C@@H](CCCCN)C(=O)N[C@@H](Cc2ccc(O)cc2)C(=O)N[C@H](C(=O)N[C@@H](Cc2ccccc2)C(N)=O)C(C)C)NC(=O)[C@H](Cc2c[nH]c4ccccc24)NC(=O)[C@H](CCC(N)=O)NC(=O)[C@H](Cc2c[nH]cn2)NC(=O)[C@H]([C@@H](C)O)NC(=O)[C@H](CCCNC(=N)N)NC(=O)[C@H](CO)NC3=O)NC(=O)[C@H](CCCCN)NC(=O)[C@H](CC(=O)O)NC(=O)[C@H](CC(N)=O)NC(=O)[C@H](CC(=O)O)NC(=O)[C@@H]2CCCN2C1=O [SEQ ID NO: 763, [Gln28]GpTx-1] (H-DCLGFMRKCIPDNDKCCRPNLVCSRTHQWCKYVF-NH2; disulfide 2-17, 9-23, 16-30)	–	–	–	pIC50 (hNav1.5; read-out: IWQ Use Nav1.5): 4.64
CC[C@@H](C)[C@H]1NC(=O)[C@H]2CSSC[C@H]3NC(=O)[C@@H](C(C)C)NC(=O)[C@@H](CC(C)C)NC(=O)[C@@H](CC(N)=O)NC(=O)[C@H]4CCCN4C(=O)[C@@H](CCCNC(=N)N)NC(=O)[C@@H](CSSC[C@@H](NC(=O)[C@H](N)CC(=O)O)C(=O)N[C@H](CC(C)C)C(=O)NCC(=O)N[C@H](Cc4ccccc4)C(=O)N[C@H](CCSC)C(=O)N[C@H](CCCNC(=N)N)C(=O)N[C@H](CCCCN)C(=O)N2)NC(=O)[C@@H](CSSC[C@H](C(=O)N[C@H](CCCCN)C(=O)N[C@H](Cc2ccc(O)cc2)C(=O)N[C@@H](C(=O)N[C@H](Cc2ccccc2)C(N)=O)C(C)C)NC(=O)[C@@H](Cc2c[nH]c4ccccc24)NC(=O)[C@@H](CCCCN)NC(=O)[C@@H](Cc2c[nH]cn2)NC(=O)[C@@H]([C@H](C)O)NC(=O)[C@@H](CCCNC(=N)N)NC(=O)[C@@H](CO)NC3=O)NC(=O)[C@@H](CCCCN)NC(=O)[C@@H](CC(=O)O)NC(=O)[C@@H](CC(N)=O)NC(=O)[C@@H](CC(=O)O)NC(=O)[C@H]2CCCN2C1=O [compound 2]	–	–	–	IC50 (hNav1.5; IWQ Use Nav1.5 (μM)): 11.3 µM
CC[C@H](C)[C@@H]1NC(=O)[C@@H]2CSSC[C@@H]3NC(=O)[C@H](C(C)C)NC(=O)[C@H](CC(C)C)NC(=O)[C@H](CC(N)=O)NC(=O)[C@@H]4CCCN4C(=O)[C@H](CCCNC(=N)N)NC(=O)[C@H](CSSC[C@H](NC(=O)[C@@H](N)CC(=O)O)C(=O)N[C@@H](CC(C)C)C(=O)NCC(=O)N[C@@H](Cc4ccccc4)C(=O)N[C@@H](CCSC)C(=O)N[C@@H](CCCNC(=N)N)C(=O)N[C@@H](CCCCN)C(=O)N2)NC(=O)[C@H](CSSC[C@@H](C(=O)N[C@@H](CCCCN)C(=O)N[C@@H](Cc2ccc(O)cc2)C(=O)N[C@H](C(=O)N[C@@H](Cc2ccccc2)C(N)=O)C(C)C)NC(=O)[C@H](Cc2c[nH]c4ccccc24)NC(=O)[C@H](CCCCN)NC(=O)[C@H](Cc2c[nH]cn2)NC(=O)[C@H](Cc2c[nH]cn2)NC(=O)[C@H](CCCNC(=N)N)NC(=O)[C@H](CO)NC3=O)NC(=O)[C@H](CCCCN)NC(=O)[C@H](CC(=O)O)NC(=O)[C@H](CC(N)=O)NC(=O)[C@H](CC(=O)O)NC(=O)[C@@H]2CCCN2C1=O [compound 337] (H-DCLGFMRKCIPDNDKCCRPNLVCSRHHKWCKYVF-NH2; disulfide 2-17, 9-23, 16-30)	–	–	–	pIC50 (hNav1.5; Table 22, IonWorks Quattro, use, […], read-out: IWQ Use Nav1.5): 5.34
CC[C@H](C)[C@@H]1NC(=O)[C@@H]2CSSC[C@@H]3NC(=O)[C@H](C(C)C)NC(=O)[C@H](CC(C)C)NC(=O)[C@H](CC(N)=O)NC(=O)[C@@H]4CCCN4C(=O)[C@H](CCCNC(=N)N)NC(=O)[C@H](CSSC[C@H](NC(=O)[C@@H](N)CC(=O)O)C(=O)N[C@@H](CC(C)C)C(=O)NCC(=O)N[C@@H](Cc4ccc(C(F)(F)F)cc4)C(=O)N[C@@H](CCSC)C(=O)N[C@@H](CCCNC(=N)N)C(=O)N[C@@H](CCCCN)C(=O)N2)NC(=O)[C@H](CSSC[C@@H](C(=O)N[C@@H](CCCCN)C(=O)N[C@@H](Cc2ccc(O)cc2)C(=O)N[C@H](C(=O)N[C@@H](Cc2ccccc2)C(N)=O)C(C)C)NC(=O)[C@H](Cc2c[nH]c4ccccc24)NC(=O)[C@H](CCCCN)NC(=O)[C@H](Cc2c[nH]cn2)NC(=O)[C@H]([C@@H](C)O)NC(=O)[C@H](CCCNC(=N)N)NC(=O)[C@H](CO)NC3=O)NC(=O)[C@H](CCCCN)NC(=O)[C@H](CC(=O)O)NC(=O)[C@H](CC(N)=O)NC(=O)[C@H](CC(=O)O)NC(=O)[C@@H]2CCCN2C1=O [compound 654]	4.1	18.4	4.4	–
CC[C@H](C)[C@@H]1NC(=O)[C@@H]2CSSC[C@@H]3NC(=O)[C@H](C(C)C)NC(=O)[C@H](CC(C)C)NC(=O)[C@H](CC(N)=O)NC(=O)[C@@H]4CCCN4C(=O)[C@H](CCCNC(=N)N)NC(=O)[C@H](CSSC[C@H](NC(=O)[C@@H](N)CC(=O)O)C(=O)N[C@@H](CC(C)C)C(=O)NCC(=O)N[C@@H](Cc4ccc(F)cc4)C(=O)N[C@@H](CCSC)C(=O)N[C@@H](CCCNC(=N)N)C(=O)N[C@@H](CCCCN)C(=O)N2)NC(=O)[C@H](CSSC[C@@H](C(=O)N[C@@H](CCCCN)C(=O)N[C@@H](Cc2ccc(O)cc2)C(=O)N[C@H](C(=O)N[C@@H](Cc2ccccc2)C(N)=O)C(C)C)NC(=O)[C@H](Cc2c[nH]c4ccccc24)NC(=O)[C@H](CCCCN)NC(=O)[C@H](Cc2c[nH]cn2)NC(=O)[C@H]([C@@H](C)O)NC(=O)[C@H](CCCNC(=N)N)NC(=O)[C@H](CO)NC3=O)NC(=O)[C@H](CCCCN)NC(=O)[C@H](CC(=O)O)NC(=O)[C@H](CC(N)=O)NC(=O)[C@H](CC(=O)O)NC(=O)[C@@H]2CCCN2C1=O [compound 655]	7.1	26.6	3.8	–
